{"source": "patent US20040229791A1", "about": "“Compositions and methods of modulating TGF-beta activity by fatty acids” (priority 2002, published 2004)", "target": "T1, TGF-β1-α2M* complex (Homo sapiens, UniProt P01023)", "T1 construct": "was purified from pooled citrate-treate human plasma; from tissue; host or cells: pooled citrate-treated human plasma", "T1 sequence (P01023 24-1474)": "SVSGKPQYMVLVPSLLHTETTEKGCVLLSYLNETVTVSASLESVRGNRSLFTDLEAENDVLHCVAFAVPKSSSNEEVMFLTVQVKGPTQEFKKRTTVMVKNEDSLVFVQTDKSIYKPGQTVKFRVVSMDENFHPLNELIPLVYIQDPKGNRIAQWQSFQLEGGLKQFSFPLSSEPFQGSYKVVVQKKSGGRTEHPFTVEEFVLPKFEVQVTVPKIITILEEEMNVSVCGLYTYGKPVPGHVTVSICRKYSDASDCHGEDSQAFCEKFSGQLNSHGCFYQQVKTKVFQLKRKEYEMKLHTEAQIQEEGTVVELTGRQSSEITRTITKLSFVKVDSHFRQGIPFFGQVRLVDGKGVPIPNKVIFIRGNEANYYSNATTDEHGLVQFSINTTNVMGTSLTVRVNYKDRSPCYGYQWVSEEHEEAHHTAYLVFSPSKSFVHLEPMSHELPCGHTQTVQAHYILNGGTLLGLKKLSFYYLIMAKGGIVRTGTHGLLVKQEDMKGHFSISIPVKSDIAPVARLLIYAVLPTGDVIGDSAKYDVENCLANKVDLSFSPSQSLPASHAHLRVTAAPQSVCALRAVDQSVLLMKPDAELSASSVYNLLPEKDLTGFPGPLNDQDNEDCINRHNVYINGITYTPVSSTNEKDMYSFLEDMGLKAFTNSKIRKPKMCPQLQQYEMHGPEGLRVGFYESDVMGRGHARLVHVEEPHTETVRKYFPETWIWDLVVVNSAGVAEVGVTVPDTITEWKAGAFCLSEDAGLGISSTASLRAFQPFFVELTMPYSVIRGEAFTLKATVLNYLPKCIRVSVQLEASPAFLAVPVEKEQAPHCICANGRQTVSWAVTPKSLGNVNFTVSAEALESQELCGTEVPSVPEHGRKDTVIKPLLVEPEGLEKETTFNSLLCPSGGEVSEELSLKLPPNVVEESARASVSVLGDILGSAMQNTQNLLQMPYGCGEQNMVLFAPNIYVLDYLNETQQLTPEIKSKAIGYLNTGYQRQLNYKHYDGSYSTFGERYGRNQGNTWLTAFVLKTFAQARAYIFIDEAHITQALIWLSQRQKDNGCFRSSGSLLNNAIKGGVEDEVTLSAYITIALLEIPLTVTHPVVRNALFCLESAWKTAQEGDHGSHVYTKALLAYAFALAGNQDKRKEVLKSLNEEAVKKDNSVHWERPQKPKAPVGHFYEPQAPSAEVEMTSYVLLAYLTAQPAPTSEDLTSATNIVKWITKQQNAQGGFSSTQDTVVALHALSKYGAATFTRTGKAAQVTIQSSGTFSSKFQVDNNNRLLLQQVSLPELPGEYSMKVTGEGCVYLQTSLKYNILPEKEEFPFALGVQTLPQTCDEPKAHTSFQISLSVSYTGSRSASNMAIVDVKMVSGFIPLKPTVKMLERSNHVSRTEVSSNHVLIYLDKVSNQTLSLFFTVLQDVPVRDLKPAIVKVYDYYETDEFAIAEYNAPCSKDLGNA", "assay": "Inhibition of 125I-TGF-β1 and α2M* complex formation (5% non-denaturing PAGE, autoradiography)", "format": "binding", "conditions": "~1 nM 125I-TGF-β1, 10 μg α2M* in 0.05 ml, 30 min room temperature, non-denaturing PAGE; read-out: IC50 for inhibiting complex formation between TGF-β1 and α2M*", "procedure": "Saturated and unsaturated fatty acids are present in plasma and tissues (25,26). The effects of various concentrations of saturated fatty acids on the formation of complexes between ^125I-TGF ? β1 and ? 2M* were examined. ^125I-TGF- ? 1 (1 nM) was incubated μg/ml) in the presence of various concentrations of n-caprylic acid ([…]), lauric acid (12 carbon atoms), myristic acid (14 carbon atoms), palmitic acid (16 carbon atoms) and stearic acid (18 carbon atoms). After 30 min at room temperature, the reaction mixture was analyzed by 5% non-denaturing PAGE and autoradiography, a standard method form determining complex formation between TGF-β and α2M* (12). […] At 100 μM, it inhibited 20% of the complex formation between TGF ? β1 and α2M*. Esterification consistently abolished the inhibitory activities of the fatty acids.\nComplex formation of ^125I-TGF-β and ? 2M*—The reaction mixture contained 10 μg of . α2M*, ˜1 nM of ^125I-TGF- ? 1, ^125I-TGF ? β2 or ^125I-TGF ? acids (dissolved in 100% ethanol) in 0.05 ml of 50 mM HEPES-NaOH buffer, pH 7.4. The final concentration of ethanol in the reaction mixture was 0.5%. These fatty acids and fatty acid derivatives were soluble under the experimental conditions. After 30 min at room temperature, the complex formation of ^125I-TGF- ? and. α2M* was determined by 5% non-denaturing polyacrylamide gel electrophoresis (PAGE) or by 7.5% SDS-PAGE following cross-linking by 0.6 mM DSS. After electrophoresis, the gel was stained with Coomassie blue and analyzed by autoradiography. The ^125I-TGF- ? - ? 2M* complex which co-migrated with free ? 2M* was quantified using a PhosphoImager (Fuji)."}
{"smiles": "CCCCC/C=C\\C/C=C\\C/C=C\\CCCCC(=O)O", "note": "[γ-linolenic acid]", "values": [{"measurement": "IC50", "result": "8 ± 2", "unit": "µM"}]}
